Laboratory results published in paper PMC5469208 (Molecular microbiology, 2016).
≈ marks a conversion by molar mass, not a printed value. Entries after “also recorded” stand apart in the source; their conditions may differ. Read-outs that look alike come from different tables or passages of the source.

Columns and labels:
BS ClpP [1] = biological target: T1, BS ClpP (Bacillus subtilis, UniProt P80244); experiment: Z-LL stability in the presence of BS ClpP, HPLC; design: species or system B. subtilis; conditions: 1 mM Z-LL, 3 μM BS ClpP, 3 h, 37 °C, activity buffer, Fig. S3
BS ClpP [2] = biological target: T1, BS ClpP; experiment: suc-LY-amc hydrolysis competition assay with BS ClpP; assay type: biochemical, B. subtilis; conditions: 3 μM BS ClpP, 30 μM suc-LY-amc, 0–60 μM ADEP2, 0, 500 or 2500 μM Z-LL, pH 8
MTB ClpP1P2 = MTB ClpP1P2 (Mycobacterium tuberculosis, UniProt P9WPC3+P9WPC5); experiment: Z-GGL-amc peptidase activity of Z-LL pre-activated ClpP1P2; assay type: biochemical, M. tuberculosis; conditions: 5 mM Z-LL, without ADEP
M. bovis wildtype (wt) = assay type: cell-based, Mycobacterium bovis BCG
[3] = tested on: M. bovis BCG clpP1-tetoff; assay type: cell-based, Mycobacterium bovis BCG
ClpP2 = assay type: cell-based, M. bovis BCG
S. aureus = conditions: ref Conlon et al., 2013; cited from earlier work
B. subtilis 168-pX2-clpP = experiment: MIC determination, conditional strain B. subtilis 168-pX2-clpP; assay type: cell-based; conditions: Bacillus subtilis, 168PX2CLPP, LB medium
B. subtilis 168ΔclpP = experiment: microbe, parasite or virus in culture; assay type: cell-based; conditions: Bacillus subtilis, LB medium
M. tuberculosis H37Rv = experiment: MIC determination by broth microdilution, M. tuberculosis; assay type: cell-based; conditions: Mycobacterium tuberculosis
M. bovis BCG Pasteur = experiment: microbe, parasite or virus in culture; assay type: cell-based, Mycobacterium bovis BCG
B. subtilis 168 = experiment: MIC determination by broth microdilution, B. subtilis 168 wt; assay type: cell-based; conditions: Bacillus subtilis, 168, B. subtilis 168 wt, LB medium
[4] = tested on: M. bovis BCG clpP1-tetoff; experiment: microbe, parasite or virus in culture; assay type: cell-based, Mycobacterium bovis BCG
ClpC1 [5] = conditions: ref Gavrish et al., 2014 (lassomycin); Gao et al., 2014 (ecumicin); cited from earlier work
ClpC1 [6] = conditions: binding to the ATPase ClpC1; ref Schmitt et al., 2011; cited from earlier work
M. smegmatis mc^2155 = experiment: MIC determination by broth microdilution, M. smegmatis; assay type: cell-based, Mycobacterium smegmatis; conditions: Mycolicibacterium smegmatis, MC^2155, 48 h
[7] = M. bovis BCG wt, 25 ng ml^−1 ATc
[8] = M. bovis BCG wt, no ATc (Table 2)
[9] = Mycobacterium tuberculosis variant bovis BCG, BCG

T1 sequence (P80244 whole entry): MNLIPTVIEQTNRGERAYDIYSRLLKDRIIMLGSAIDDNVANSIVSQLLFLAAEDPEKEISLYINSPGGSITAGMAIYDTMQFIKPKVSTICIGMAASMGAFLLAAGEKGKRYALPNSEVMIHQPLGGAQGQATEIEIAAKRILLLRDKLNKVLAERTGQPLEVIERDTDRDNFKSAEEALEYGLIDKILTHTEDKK

benzyloxycarbonyl-leucyl-leucine [Z-LL]
amount of Z-LL after incubation with BS ClpP (BS ClpP [1]): not reduced after 3 hours incubation
mode of inhibition of Z-LL versus ADEP2 (BS ClpP [2]): non-competitive with ADEP
peptidase activity of ClpP1P2 activated by Z-LL alone (MTB ClpP1P2): able to degrade the fluorogenic peptide substrate Z-GGL-amc

Cc1c2c(c(O)c3c(O)cccc13)C(=O)[C@]1(O)C(=O)C(C(N)=O)=C(O)[C@@H](N(C)C)[C@@H]1C2 [ATc, anhydrotetracycline]
growth of M. bovis wildtype (M. bovis wildtype (wt); 2 ng ml^−1 ATc): not affected
growth of M. bovis wildtype (M. bovis wildtype (wt); 25 ng ml^−1 ATc, MIC growth controls): did not impede growth of the wildtype strain
growth of clpP1-tetoff strain [3]: slowed down the growth rate; also recorded: the cells were dying
ClpP2 / ClpP1P2 protein level (ClpP2): considerably reduced level

CO[C@H]1/C=C/O[C@@]2(C)Oc3c(C)c(O)c4c(O)c(c(/C=N/N5CCN(C)CC5)c(O)c4c3C2=O)NC(=O)/C(C)=C\C=C\[C@H](C)[C@H](O)[C@@H](C)[C@@H](O)[C@@H](C)[C@H](OC(C)=O)[C@@H]1C [Rifampicin]
synergy with ADEP against S. aureus (S. aureus): act synergistically with ADEP against S. aureus

CN[C@@H]1[C@@H](O[C@H]2O[C@H](CO)[C@@H](N)[C@H](O)[C@H]2O)OC2C[C@@H](N)[C@@H](O[C@H]3[C@H](O)[C@@H](O)[C@H](N)C[C@@H]3N)OC2[C@@H]1O (some centres unmarked) [apramycin]
MIC (B. subtilis 168-pX2-clpP; 1% xylose): 1 µg/mL (≈ 1.85 µM)
MIC (B. subtilis 168-pX2-clpP; 2% xylose): 2 µg/mL (≈ 3.71 µM)
MIC (B. subtilis 168-pX2-clpP; 3% xylose): 2 µg/mL (≈ 3.71 µM)
MIC (B. subtilis 168-pX2-clpP; 4% xylose): 4 µg/mL (≈ 7.41 µM)
MIC (B. subtilis 168-pX2-clpP; 5% xylose): 2 µg/mL (≈ 3.71 µM)
MIC (B. subtilis 168-pX2-clpP; 8% xylose): 4 µg/mL (≈ 7.41 µM)
MIC (B. subtilis 168-pX2-clpP; 10% xylose): 4 µg/mL (≈ 7.41 µM)
MIC (B. subtilis 168-pX2-clpP; no xylose): 2 µg/mL (≈ 3.71 µM)
MIC (B. subtilis 168ΔclpP; 10% xylose): 1 µg/mL (≈ 1.85 µM)
MIC (B. subtilis 168ΔclpP; no xylose): 2 µg/mL (≈ 3.71 µM)
MIC (M. tuberculosis H37Rv): 1 µg/mL (≈ 1.85 µM)
MIC (M. bovis BCG Pasteur; [7]): 1 µg/mL (≈ 1.85 µM)
MIC (M. bovis BCG Pasteur; [8]): 1 µg/mL (≈ 1.85 µM)
MIC (M. bovis BCG Pasteur; [9]): 1 µg/mL (≈ 1.85 µM)
MIC (B. subtilis 168; 10% xylose): 2 µg/mL (≈ 3.71 µM)
MIC (B. subtilis 168; no xylose): 4 µg/mL (≈ 7.41 µM)
effect of ATc (clpP1P2 down-regulation) on sensitivity to the antibiotic [4]: did not occur

lassomycin
ATP-hydrolysis by ClpC1, uncoupling from protein degradation by ClpP1P2 (ClpC1 [5]): stimulate ATP-hydrolysis by ClpC1, while uncoupling it from protein degradation by ClpP1P2

Cyclomarin
hydrolysis of a model protein in M. smegmatis (ClpC1 [6]): increased hydrolysis of a model protein

NNC(=O)c1ccncc1 [isoniazid]
MIC (M. smegmatis mc^2155): 4 µg/mL (≈ 29.2 µM)
MIC (M. bovis BCG Pasteur; M. bovis BCG Pasteur, 7H9 medium): 0.06 µg/mL (≈ 0.438 µM)
MIC (M. bovis BCG Pasteur; [7]): 0.06 µg/mL (≈ 0.438 µM)
MIC (M. bovis BCG Pasteur; [8]): 0.06 µg/mL (≈ 0.438 µM)
MIC (M. bovis BCG Pasteur; [9]): 0.06 µg/mL (≈ 0.438 µM)
effect of ATc (clpP1P2 down-regulation) on sensitivity to the antibiotic [4]: did not occur
MIC [4, 9]: 0.03 µg/mL (≈ 0.219 µM)

ecumicin
ATP-hydrolysis by ClpC1, uncoupling from protein degradation by ClpP1P2 (ClpC1 [5]): stimulate ATP-hydrolysis by ClpC1, while uncoupling it from protein degradation by ClpP1P2
